For one data set, the system named is Helicobacter pyroli. Briefly: AHP: Antibacterial Activity Test Against Helicobacter pyroli (agar dilution). Conditions: Helicobacter, NCTC11637, 168 h; HP NCTC 11637, agar dilution, 7 days; read-out: AHP minimum inhibitory concentration (MIC). Format: cell-based, HP NCTC 11637. The method, then:
AHP: Antibacterial Activity Test Against Helicobacter pyroli i) Meaning The minimum inhibitory concentration (MIC) against Helicobacter pyroli (microaerophilic gram-negative bacterium which is supposed to deeply involve in pathogenesis, relapse, and recrudescence of ulcer, referred to as "HP" in the following) is measured so as to find out compounds which have antimicrobial activity against Helicobacter pyroli. ii) Method MICs were determined by the agar dilution method. The stock culture (-80° C.) of HP NCTC 11637 was thawed and cultured on tripticase soy agar supplemented with 5% sheep blood at 37° C. in an atmosphere of 5% O2, 10% CO2, and 85% N2. Grown colonies were transferred to the same plate and precultured for 3 days under the same condition. […] 10 μl of the bacterial suspension for inoculation (about 10^3 cfu) was inoculated on this plate and cultured for 7 days under the same condition as that of preculture. […] As the result of the comparison of these plates, when the number of the colony on the plate containing the sample compound was less than 90% with respect to that on the control plate, it was represented by "+". Contrary to this, when there was 90% or more, it was represented by "-".

The nature of data set [1]: MTT: Cell Damaging and Protecting Effect Test. Conditions: rabbit, gastric corpus mucosa cells, final concentration 10^-4 M, smaller value is better, read-out: MTT cell damaging rate. Format: cell-based, rabbit (male Japanese White). An excerpt:
MTT: Cell Damaging and Protecting Effect Test
It is confirmed that there is no toxicity in cell level. Those having a toxicity in cell level are inappropriate as an anti-ulcer drug.
A male Japanese White rabbit (2.5 to 3 kg) was anesthetized to death by Nembutal™ and, immediately thereafter, its stomach was removed. The greater curvature of the stomach was incised so as to remove the stomach contents therefrom. After the mucosal surface was washed with HBSS (Hanks' Balanced Salt Solution), the stomach in ice-cooled HBSS was transferred to a laboratory. Then, after the pyloric antrum was removed, the gastric corpus mucosa was separated by a spatula and then minced into 2 to 3 mm^3 pieces in BME (Basal Medium Eagle). Thereafter, these pieces were shaken at 120 to 130 cycles/minute for 15 minutes at 37° C. in BME 60 ml containing 280 U/ml of dispase and 30 to 50 U/ml of collagenase. Here, the concentration of collagenase was appropriately changed for each lot in view of the state of cells. The pieces were washed twice with EBSS (Earle's Balanced Salt Solution) containing 1 mM of EDTA and then shaken in MEM (Minimum Essential Medium) containing 1 mM of EDTA at 37° C. for 5 minutes. Subsequently, they were shaken in the dispase and collagenase having the same concentrations as those mentioned above for 15 minutes so as to remove the supernatant and then further shaken at 37° C. for 50 to 60 minutes at 120 to 130 cycles/minute. Then, after being washed twice with HBSS, Ham F12 containing 2% of Ultrocer G™ was used to attain the concentration of 1×10^6 cells/ml. Thus formed suspension was dispensed in each well of a 96-well plate by 200 μl. The plate was incubated in the atmosphere composed of 5% CO2 and 95% air at 37° C. for three days so as to attain a confluent state and then subjected to MTT assay.
The sample compound was dissolved in DMSO so as to attain a concentration of 10^-2 M and then diluted with HBSS containing 2% of Ultrocer G™ so as to attain a final concentration of 10^-4 M. To each group, which 8 wells were used for, 10 μl of MTT reagent was added immediately after 100 μl of the medium in each well was exchanged for same volume of the resulting solution of the sample compound. After being incubated in an atmosphere composed of 5% CO2 and 95% air at 37° C. for 4 hours, thus formed solution was centrifuged and then its supernatant was discarded. Subsequently, 100 μl of 100% ethanol was added to the residue so as to dissolve MTT formazan. Then, the absorbance (OD: 570 to 630) was measured by a microplate reader. This method utilizes a phenomenon in which MTT is changed to MTT formazan only by mitochondria of living cells so as to change color.
The cell damaging or cell protecting effect of the sample compound at the final concentration of 10^-4 M was expressed as cell damaging rate (%) as follows:
cell damaging rate (%)=(1-(absorbance in sample group/absorbance in control group))×100
Accordingly, the smaller rate value is better in the cell damage.

For `CC(C)=CCC/C(C)=C/COc1ccc(C(=O)N2CCN(CCNC(=O)c3ccc4c(c3)OCO4)CC2)cc1` [Example 1, 1-(4-geranyloxy)benzoyl-4-[2-(piperonyloylamino)ethyl]piperazine], in the data set on Helicobacter pyroli, the MIC is below 3.13 µg/mL. In addition, the cytotoxicity at 4 h, 100 µM in data set [1] was determined as 21%.

These data come from patent publication US5962456A, “N-acylpiperazine derivative, anti-ulcer drug, and antibacterial drug” (Shiseido Co., Ltd., priority 1996, dated 1999).
